Values quoted from earlier work, collected in publication PMC4536914 (Chembiochem : a European journal of chemical biology, 2012).

Biological target: Plk1 PBD (HA-EGFP-Plk1 in mitotic 293A cell lysates) (Homo sapiens, UniProt P53350)
Conditions: previous work; ref [10]

Sequence of Plk1 PBD (HA-EGFP-Plk1 in mitotic 293A cell lysates) (P53350 whole entry): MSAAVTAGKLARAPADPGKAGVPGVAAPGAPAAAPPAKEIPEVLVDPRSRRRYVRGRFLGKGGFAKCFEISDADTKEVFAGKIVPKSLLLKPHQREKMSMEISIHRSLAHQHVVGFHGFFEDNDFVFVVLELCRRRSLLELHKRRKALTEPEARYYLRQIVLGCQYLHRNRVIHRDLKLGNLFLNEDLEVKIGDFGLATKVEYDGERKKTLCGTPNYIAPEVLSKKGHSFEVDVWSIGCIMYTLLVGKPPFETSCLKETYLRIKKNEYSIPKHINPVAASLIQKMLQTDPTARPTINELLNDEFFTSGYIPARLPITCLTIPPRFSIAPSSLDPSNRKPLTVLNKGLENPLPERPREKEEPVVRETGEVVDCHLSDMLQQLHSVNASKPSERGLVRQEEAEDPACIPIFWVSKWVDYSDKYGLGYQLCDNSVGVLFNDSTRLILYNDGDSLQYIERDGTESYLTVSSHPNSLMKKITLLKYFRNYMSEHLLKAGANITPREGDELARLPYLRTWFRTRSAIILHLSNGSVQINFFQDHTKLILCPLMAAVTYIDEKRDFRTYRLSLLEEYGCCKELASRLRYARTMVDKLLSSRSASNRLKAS

For LHSpT, the “Plk1 PBD-binding affinity relative to parent peptide 1” value is given as “significantly less Plk1 PBD-binding affinity than the parent peptide 1”.
